Experimental data: patent US20080194482A1, “Selective Apac2 Receptor Peptide Agonists” (priority 2005, published 2008)
Where two headings read alike, the source gives them in different places. Square brackets hold non-standard residues; d marks the D form. Ends that are not written are not given here. Peptide text beside a SMILES is read from it. * marks the point of attachment. hArg = N=C(N)NCCCC[C@H](N)C(=O)O; Orn = NCCC[C@H](N)C(=O)O; Hexanoyl = CCCCCC(=O)*; Aib = CC(C)(N)C(=O)O

Experiments:
[1] = Rat serum stability (activity remaining, CHO-VPAC2 DiscoveRx read-out); format: in vitro ADME
Experimental: The rat serum is stored at 4° C. until use and is used within two weeks. […] The aliquot is stored with aprotinin at 4° C. The aliquot is stored without aprotinin at 37° C. The aliquots are incubated overnight. […] The plate(s) are washed with cells twice in incubation buffer. The plates are allowed to hold 50 μL incubation media per well for 15 minutes. 50 μL solution per well is transferred to the cells from the plate prepared with 11 serial 5× dilutions of peptide for the 4° C. and 37° C. aliquot for each peptide studied, using the maximal concentrations that are indicated by the primary screen, in duplicate. This step dilutes the peptide concentration by a factor of two. The cells are incubated at room temperature for 30 minutes. […] The cells are incubated on the shaker (300 rpm) for 1 hour. Normal procedure with the DiscoveRx kit is followed. cAMP standards are included in column 12. EC50 values are determined from the cAMP assay data.

[2] = biological target: T1, human VPAC1 (Homo sapiens, UniProt P32241); experiment: Filter binding assay, 125I-labeled VIP tracer, VPAC1 membranes; settings: read-out: Human VPAC1 Receptor Binding (IC50; nM)
T1 construct: expressed in transfected cells
T1 sequence (P32241 31-457): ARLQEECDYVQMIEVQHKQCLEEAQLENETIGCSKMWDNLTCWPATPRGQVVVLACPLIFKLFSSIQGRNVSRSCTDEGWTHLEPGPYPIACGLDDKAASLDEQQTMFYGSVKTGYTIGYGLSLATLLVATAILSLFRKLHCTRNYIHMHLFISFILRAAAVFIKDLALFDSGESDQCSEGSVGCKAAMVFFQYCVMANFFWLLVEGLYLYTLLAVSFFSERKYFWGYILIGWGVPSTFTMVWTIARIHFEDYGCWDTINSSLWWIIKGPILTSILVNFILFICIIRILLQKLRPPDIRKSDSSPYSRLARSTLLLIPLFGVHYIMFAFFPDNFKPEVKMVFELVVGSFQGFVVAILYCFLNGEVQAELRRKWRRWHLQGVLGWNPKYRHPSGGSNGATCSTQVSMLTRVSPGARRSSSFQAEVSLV
Experimental: For this assay, the solutions and equipment include:
Presoak solution: 0.5% Polyethyleneamine in Aqua dest
Buffer for flushing filter plates: 25 mM HEPES pH 7.4
Blocking buffer: 25 mM HEPES pH 7.4; 0.2% protease free BSA
Assay buffer: 25 mM HEPES pH 7.4; 0.5% protease free BSA
Dilution and assay plate: PS-Microplate, U form
Filtration Plate: Multiscreen FB Opaque Plate; 1.0 μM Type B Glasfiber filter
In order to prepare the filter plates, the presoak solution is aspirated by vacuum filtration. The plates are flushed twice with 200 μL flush buffer. 200 μL blocking buffer is added to the filter plate. The filter plate is then incubated with 200 μL presoak solution for 1 hour at room temperature.
The assay plate is filled with 25 μL assay buffer, 25 μL membranes (2.5 μg) suspended in assay buffer, 25 μL compound (agonist) in assay buffer, and 25 μL tracer (about 40000 cpm) in assay buffer. The filled plate is incubated for 1 hour with shaking.
The transfer from assay plate to filter plate is conducted. The blocking buffer is aspirated by vacuum filtration and washed two times with flush buffer. 90 μL is transferred from the assay plate to the filter plate. The 90 μL transferred from assay plate is aspirated and washed three times with 200 μL flush buffer. The plastic support is removed. It is dried for 1 hour at 60° C. 30 μL Microscint is added. The count is performed.

[3] = biological target: T2, human PAC1 (Homo sapiens, UniProt P41586); experiment: Filter binding assay, 125I-labeled PACAP-27 tracer, PAC1 membranes; settings: read-out: Human PAC1 Receptor Binding (IC50; nM)
T2 construct: expressed in transfected cells
T2 sequence (P41586 21-468): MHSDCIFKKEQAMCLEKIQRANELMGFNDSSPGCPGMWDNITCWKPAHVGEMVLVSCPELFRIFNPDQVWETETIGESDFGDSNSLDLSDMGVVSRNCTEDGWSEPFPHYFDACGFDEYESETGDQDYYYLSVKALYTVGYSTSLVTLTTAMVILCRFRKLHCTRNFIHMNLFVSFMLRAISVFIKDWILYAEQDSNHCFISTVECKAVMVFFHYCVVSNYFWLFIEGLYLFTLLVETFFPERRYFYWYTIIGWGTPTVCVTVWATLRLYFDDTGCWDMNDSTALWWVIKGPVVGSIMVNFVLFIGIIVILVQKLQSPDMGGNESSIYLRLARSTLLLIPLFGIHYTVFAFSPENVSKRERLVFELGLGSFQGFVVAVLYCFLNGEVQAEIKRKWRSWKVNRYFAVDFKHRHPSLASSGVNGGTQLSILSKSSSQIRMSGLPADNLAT

[4] = biological target: T3, human VPAC2 (Homo sapiens, UniProt P41587); experiment: Alpha screen cAMP assay, in vitro potency at human VPAC2 receptor; format: cell-based; settings: cAMP generation; single result from two analyses in a single run, some values average of more than one experiment
T3 construct: expressed in transfected cells
T3 sequence (P41587 24-438): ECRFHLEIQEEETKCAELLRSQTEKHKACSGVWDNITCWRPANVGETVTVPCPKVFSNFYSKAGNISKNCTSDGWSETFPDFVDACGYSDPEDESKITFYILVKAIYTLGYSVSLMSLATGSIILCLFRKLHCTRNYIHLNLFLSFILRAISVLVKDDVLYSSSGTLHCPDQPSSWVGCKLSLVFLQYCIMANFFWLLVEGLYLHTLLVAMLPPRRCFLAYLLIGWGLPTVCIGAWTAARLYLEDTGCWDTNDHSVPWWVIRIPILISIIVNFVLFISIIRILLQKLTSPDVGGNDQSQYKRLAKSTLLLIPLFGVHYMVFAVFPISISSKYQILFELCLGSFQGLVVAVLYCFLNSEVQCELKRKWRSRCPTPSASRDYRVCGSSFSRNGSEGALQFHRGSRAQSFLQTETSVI

Molecule	Rat Serum Stability (estimated purity in % after overnight incub.) [1]	IC50 [2]	IC50 [3]	EC50 [4]	Rat Serum Stability (estimated purity in % after overnight incub.) ([1]; 10 μM peptide in rat serum, overnight at 37° C. vs 4° C. with aprotinin, estimated by EC50, 4C/EC50, 37C)
CCCCCC(=O)N[C@@H](Cc1c[nH]cn1)C(=O)N[C@@H](CO)C(=O)N[C@@H](CC(=O)O)C(=O)N[C@@H](C)C(=O)N[C@H](C(=O)N[C@@H](Cc1ccccc1)C(=O)N[C@H](C(=O)N[C@@H](CC(=O)O)C(=O)N[C@@H](CC(N)=O)C(=O)N[C@@H](Cc1ccc(O)cc1)C(=O)N[C@H](C(=O)N[C@@H](Cc1ccccc1)C(=O)N[C@@H](CC(C)C)C(=O)N[C@@H](CCCNC(=N)N)C(=O)NC(C)(C)C(=O)N[C@@H](CCC(N)=O)C(=O)N[C@H](C(=O)N[C@@H](C)C(=O)N[C@@H](C)C(=O)NC(C)(C)C(=O)N[C@@H](CCCCN)C(=O)N[C@@H](Cc1ccc(O)cc1)C(=O)N[C@@H](CC(C)C)C(=O)N[C@@H](CCC(N)=O)C(=O)N[C@@H](CO)C(=O)N[C@H](C(=O)N[C@@H](CCCN)C(=O)N[C@@H](CC(N)=O)C(=O)N[C@@H](CCCN)C(=O)NCC(=O)NCC(=O)N1CCC[C@H]1C(=O)N[C@@H](CO)C(=O)N[C@@H](CO)C(=O)NCC(=O)N[C@@H](C)C(=O)N1CCC[C@H]1C(=O)N1CCC[C@H]1C(=O)N1CCC[C@H]1C(=O)N[C@@H](CO)C(=O)O)[C@@H](C)CC)C(C)C)[C@@H](C)O)[C@@H](C)O)C(C)C [Agonist P369] (Hexanoyl-HSDAVFTDNYTFLR[Aib]QVAA[Aib]KYLQSI[Orn]N[Orn]GGPSSGAPPPS-OH; C-terminus assumed)	133.76%	> 3000 nM	> 25000 nM	–	–
CCCCCC(=O)N[C@@H](Cc1c[nH]cn1)C(=O)N[C@@H](CO)C(=O)N[C@@H](CC(=O)O)C(=O)N[C@@H](C)C(=O)N[C@H](C(=O)N[C@@H](Cc1ccccc1)C(=O)N[C@H](C(=O)N[C@@H](CC(=O)O)C(=O)N[C@@H](CC(N)=O)C(=O)N[C@@H](Cc1ccc(O)cc1)C(=O)N[C@H](C(=O)N[C@@H](CCCN)C(=O)N[C@@H](CC(C)C)C(=O)N[C@@H](CC(C)C)C(=O)N[C@@H](C)C(=O)N[C@@H](CCCCN)C(=O)N[C@@H](CC(C)C)C(=O)N[C@@H](C)C(=O)N[C@@H](CC(C)C)C(=O)N[C@@H](CCC(N)=O)C(=O)N[C@@H](CCCCN)C(=O)N[C@@H](Cc1ccc(O)cc1)C(=O)N[C@@H](CC(C)C)C(=O)N[C@@H](CCC(N)=O)C(=O)N[C@@H](CO)C(=O)N[C@H](C(=O)N[C@@H](CCCN)C(=O)N[C@@H](CC(N)=O)C(=O)N[C@@H](CCCN)C(=O)NCC(=O)NCC(=O)N1CCC[C@H]1C(=O)N[C@@H](CO)C(=O)N[C@@H](CO)C(=O)NCC(=O)N[C@@H](C)C(=O)N1CCC[C@H]1C(=O)N1CCC[C@H]1C(=O)N1CCC[C@H]1C(=O)N[C@@H](CO)C(=O)O)[C@@H](C)CC)[C@@H](C)O)[C@@H](C)O)C(C)C [Agonist P371] (Hexanoyl-HSDAVFTDNYT[Orn]LLAKLALQKYLQSI[Orn]N[Orn]GGPSSGAPPPS-OH; C-terminus assumed)	–	–	> 25000 nM	0.13 nM	–
CCCCCC(=O)N[C@@H](Cc1c[nH]cn1)C(=O)N[C@@H](CO)C(=O)N[C@@H](CC(=O)O)C(=O)N[C@@H](C)C(=O)N[C@H](C(=O)N[C@@H](Cc1ccccc1)C(=O)N[C@H](C(=O)N[C@@H](CC(=O)O)C(=O)N[C@@H](CC(N)=O)C(=O)N[C@@H](Cc1ccc(O)cc1)C(=O)N[C@H](C(=O)N[C@@H](CCCN)C(=O)N[C@@H](CC(C)C)C(=O)N[C@@H](CCCNC(=N)N)C(=O)NC(C)(C)C(=O)N[C@@H](CCC(N)=O)C(=O)N[C@H](C(=O)N[C@@H](C)C(=O)N[C@@H](C)C(=O)NC(C)(C)C(=O)N[C@@H](CCCCN)C(=O)N[C@@H](Cc1ccc(O)cc1)C(=O)N[C@@H](CC(C)C)C(=O)N[C@@H](CCC(N)=O)C(=O)N[C@@H](CO)C(=O)N[C@@H](CO)C(=O)N[C@@H](CCCN)C(=O)N[C@@H](CC(N)=O)C(=O)N[C@@H](CCCN)C(=O)NCC(=O)NCC(=O)N1CCC[C@H]1C(=O)N[C@@H](CO)C(=O)N[C@@H](CO)C(=O)NCC(=O)N[C@@H](C)C(=O)N1CCC[C@H]1C(=O)N1CCC[C@H]1C(=O)N1CCC[C@H]1C(=O)N[C@@H](CO)C(=O)O)C(C)C)[C@@H](C)O)[C@@H](C)O)C(C)C [Agonist P382] (Hexanoyl-HSDAVFTDNYT[Orn]LR[Aib]QVAA[Aib]KYLQSS[Orn]N[Orn]GGPSSGAPPPS-OH; C-terminus assumed)	92.34%	> 3000 nM	> 25000 nM	–	–
CCCCCC(=O)N[C@@H](Cc1c[nH]cn1)C(=O)N[C@@H](CO)C(=O)N[C@@H](CC(=O)O)C(=O)N[C@@H](C)C(=O)N[C@H](C(=O)N[C@@H](Cc1ccccc1)C(=O)N[C@H](C(=O)N[C@@H](CC(=O)O)C(=O)N[C@@H](CC(N)=O)C(=O)N[C@@H](Cc1ccc(O)cc1)C(=O)N[C@H](C(=O)N[C@@H](CCCN)C(=O)N[C@@H](CC(C)C)C(=O)N[C@@H](CCCNC(=N)N)C(=O)NC(C)(C)C(=O)N[C@@H](CCC(N)=O)C(=O)N[C@H](C(=O)N[C@@H](C)C(=O)N[C@@H](CO)C(=O)NC(C)(C)C(=O)N[C@@H](CCCCN)C(=O)N[C@@H](Cc1ccc(O)cc1)C(=O)N[C@@H](CC(C)C)C(=O)N[C@@H](CCC(N)=O)C(=O)N[C@@H](CO)C(=O)N[C@H](C(=O)N[C@@H](CCCN)C(=O)N[C@@H](CC(N)=O)C(=O)N[C@@H](CCCN)C(=O)NCC(=O)NCC(=O)N1CCC[C@H]1C(=O)N[C@@H](CO)C(=O)N[C@@H](CO)C(=O)NCC(=O)N[C@@H](C)C(=O)N1CCC[C@H]1C(=O)N1CCC[C@H]1C(=O)N1CCC[C@H]1C(=O)N[C@@H](CO)C(=O)O)[C@@H](C)CC)C(C)C)[C@@H](C)O)[C@@H](C)O)C(C)C [Agonist P387] (Hexanoyl-HSDAVFTDNYT[Orn]LR[Aib]QVAS[Aib]KYLQSI[Orn]N[Orn]GGPSSGAPPPS-OH; C-terminus assumed)	74.99%	> 3000 nM	> 25000 nM	–	–
CCCCCC(=O)N[C@@H](Cc1c[nH]cn1)C(=O)N[C@@H](CO)C(=O)N[C@@H](CC(=O)O)C(=O)N[C@@H](C)C(=O)N[C@H](C(=O)N[C@@H](Cc1ccccc1)C(=O)N[C@H](C(=O)N[C@@H](CCC(=O)O)C(=O)N[C@@H](CCC(N)=O)C(=O)N[C@@H](Cc1ccc(OC)cc1)C(=O)N[C@H](C(=O)N[C@@H](CCCN)C(=O)N[C@@H](CC(C)C)C(=O)N[C@@H](CCCNC(=N)N)C(=O)NC(C)(C)C(=O)N[C@@H](CCC(N)=O)C(=O)N[C@@H](CC(C)C)C(=O)N[C@@H](C)C(=O)N[C@@H](C)C(=O)NC(C)(C)C(=O)N[C@@H](CCCN)C(=O)N[C@@H](Cc1ccc(OC)cc1)C(=O)N[C@@H](CC(C)C)C(=O)N[C@@H](CCC(N)=O)C(=O)N[C@@H](CO)C(=O)N[C@H](C(=O)N[C@@H](CCCN)C(=O)N[C@@H](CCCN)C(=O)NCC(=O)NCC(=O)N1CCC[C@H]1C(=O)N[C@@H](CO)C(=O)N[C@@H](CO)C(=O)NCC(=O)N[C@@H](C)C(=O)N1CCC[C@H]1C(=O)N1CCC[C@H]1C(=O)N1CCC[C@H]1C(=O)N[C@@H](CO)C(=O)O)[C@@H](C)CC)[C@@H](C)O)[C@@H](C)O)C(C)C [Agonist P418] (Hexanoyl-HSDAVFTEQY(Me)T[Orn]LR[Aib]QLAA[Aib][Orn]Y(Me)LQSI[Orn][Orn]GGPSSGAPPPS-OH; C-terminus assumed)	99.96%	> 3000 nM	> 25000 nM	–	–
Hexanoyl-HSDAVFTDNYT[hArg]LR[Aib]QVAA[Aib]KYLQSIKNKRYGGPSSGAPPPS [Agonist P343]	–	> 3000 nM	> 25000 nM	–	34.46%
